In patent US20030157088A1, “Compositions containing enzymes stabilized with inhibitors having certain binding properties and methods for using such compositions in personal care” (The Proctor & Gamble Company, priority 2001, published 2003):

Tests used:
subtilisin = assay type: biochemical; conditions: approximate values; Ki=[E]*[I]/[EI]; read-out: inhibition constant (Ki)
Source text: Typically a safe and effective amount will range from 0.00005% to 5%, preferably from 0.005% to 2%, more preferably from 0.025% to 1%. Ki values reported herein are approximate values and may be measured, e.g. using the method set forth in “Kinetcs of Subtilisin and Thiolsubtilisin“, Philipp, M. and Bender, M. L., Molecular & Cellular Biochemistry, vol. 51, pages 5-32 (1983). Another suitable method is set forth in “Protease Stabilization by Carboxylic Acid Salts: Relative Efficencies and Mechanisms,” Crossin, Michael C., J.A.O.C.S. vol. 66, no. 7, pages 1010-1014 (July 1989). […] The inhibition constant (Ki) is defined as the concentration of inhibitor required to inhibit an enzyme's activity by 50%, and may be represented as Ki=[E]*[I]/[EI], wherein E is enzyme, I is inhibitor, and EI is enzyme-inhibitor complex.

skin = conditions: in vivo

Compound: OB(O)O [boric acid]
- Ki (subtilisin): > 1000 µM

Compound: OB(O)c1ccccc1 [phenylboronic acid]
- Ki (subtilisin): 160 µM

Compound: CC(=O)N[C@@H](CC(C)C)C(=O)N[C@@H](CC(C)C)C(=O)N[C@H](C=O)CCCNC(=N)N [leupeptide]
- Ki (subtilisin): 230 µM

Compound: CCCCB(O)O [butylboronic acid]
- Ki (subtilisin): 7200 µM

Compound: CCCCCCCCCCO[C@@H]1O[C@H](CO)[C@@H](O)[C@H](O)[C@H]1O [Decyl glucoside, decyl glucoside]
- irritation of the skin (skin): not increase irritation of the skin

Compound: Streptomyces subtilisin inhibitor [Streptomyces subtilisin inhibitor (SSI)]
- Ki (subtilisin): < 0.001 µM
